Measured values: ChEMBL document CHEMBL3885861, “Open TG-GATES”

Species: Rattus norvegicus
Assay: Open TG-GATES - Regimen: Single
Assay type: toxicity, organism-based, Sprague-Dawley
Design: regimen Single, gender Male, age 6 weeks
Conditions: in vivo, po, 1000 mg/kg, route gavage, dose level High; for APTT / Bas / Eos / Fbg / Hb / Ht / Lym / MCH / MCHC / MCV / Mono / Neu / PT / Plat / RBC / Ret / WBC: tissue Blood; for KIDNEY_L / KIDNEY_R / KIDNEY_TOTAL: tissue Kidney; for LIVER: tissue Liver; for A/G / ALP / ALT / AST / BUN / CRE / Ca / Cl / DBIL / GLC / IP / K / LDH / Na / PL / RALB / TBIL / TC / TG / TP / gamma-GTP: tissue Plasma

CN/C(=N/CCSCc1nc[nH]c1C)NC#N [CIMETIDINE]
TERMINAL_BW (3 h): 215.2 g
APTT (3 h): 19.1 s
Bas (3 h): 0%
Eos (3 h): 1%
Fbg (3 h): 216.2 mg/dL
Hb (3 h): 12.3 g/dL
Ht (3 h): 36.7%
Lym (3 h): 76.4%
MCH (3 h): 21.2 pg
MCHC (3 h): 33.5%
MCV (3 h): 63.1 fL
Mono (3 h): 3%
Neu (3 h): 18.6%
PT (3 h): 13.1 s
Plat (3 h): 126.2 x10_4/uL
RBC (3 h): 582 x10_4/ul
Ret (3 h): 7.9%
WBC (3 h): 89.9 x10_2/uL
KIDNEY_L (3 h): 1 g
KIDNEY_R (3 h): 1 g
KIDNEY_TOTAL (3 h): 2 g
LIVER (3 h): 9.8 g
A/G (3 h): 1.7
ALP (3 h): 1031 IU/L
ALT (3 h): 35.6 IU/L
AST (3 h): 67 IU/L
BUN (3 h): 8.6 mg/dL
CRE (3 h): 0.4 mg/dL
Ca (3 h): 10.6 mg/dL
Cl (3 h): 104.4 meq/L
DBIL (3 h): 0.068 mg/dL
GLC (3 h): 181.8 mg/dL
IP (3 h): 8.3 mg/dL
K (3 h): 4 meq/L
LDH (3 h): 175 IU/L
Na (3 h): 141.4 meq/L
PL (3 h): 150.2 mg/dL
RALB (3 h): 3.3 g/dL
TBIL (3 h): 0.1 mg/dL
TC (3 h): 77.6 mg/dL
TG (3 h): 46.6 mg/dL
TP (3 h): 5.3 g/dL
gamma-GTP (3 h): 1 IU/L
TERMINAL_BW (6 h): 211.9 g
APTT (6 h): 19 s
Bas (6 h): 0%
Eos (6 h): 0.8%
Fbg (6 h): 227.4 mg/dL
Hb (6 h): 13.2 g/dL
Ht (6 h): 38.2%
Lym (6 h): 78%
MCH (6 h): 21.7 pg
MCHC (6 h): 34.5%
MCV (6 h): 63 fL
Mono (6 h): 2.8%
Neu (6 h): 17.2%
PT (6 h): 13.5 s
Plat (6 h): 125.8 x10_4/uL
RBC (6 h): 607.4 x10_4/ul
Ret (6 h): 7.6%
WBC (6 h): 100.8 x10_2/uL
KIDNEY_L (6 h): 1 g
KIDNEY_R (6 h): 1 g
KIDNEY_TOTAL (6 h): 2 g
LIVER (6 h): 9.6 g
A/G (6 h): 1.5
ALP (6 h): 955 IU/L
ALT (6 h): 34.2 IU/L
AST (6 h): 65.8 IU/L
BUN (6 h): 8.2 mg/dL
CRE (6 h): 0.4 mg/dL
Ca (6 h): 10.6 mg/dL
Cl (6 h): 103.6 meq/L
DBIL (6 h): 0.078 mg/dL
GLC (6 h): 200.8 mg/dL
IP (6 h): 9.8 mg/dL
K (6 h): 4 meq/L
LDH (6 h): 162.2 IU/L
Na (6 h): 142.4 meq/L
PL (6 h): 153.4 mg/dL
RALB (6 h): 3.4 g/dL
TBIL (6 h): 0.1 mg/dL
TC (6 h): 75.6 mg/dL
TG (6 h): 83.2 mg/dL
TP (6 h): 5.6 g/dL
gamma-GTP (6 h): 1.2 IU/L
TERMINAL_BW (9 h): 208.6 g
APTT (9 h): 18.7 s
Bas (9 h): 0%
Eos (9 h): 1%
Fbg (9 h): 229.2 mg/dL
Hb (9 h): 13.1 g/dL
Ht (9 h): 37.4%
Lym (9 h): 80%
MCH (9 h): 22.1 pg
MCHC (9 h): 35.1%
MCV (9 h): 63 fL
Mono (9 h): 2.4%
Neu (9 h): 15.6%
PT (9 h): 14.1 s
Plat (9 h): 120.4 x10_4/uL
RBC (9 h): 594.2 x10_4/ul
Ret (9 h): 7.9%
WBC (9 h): 94.9 x10_2/uL
KIDNEY_L (9 h): 0.9 g
KIDNEY_R (9 h): 0.9 g
KIDNEY_TOTAL (9 h): 1.9 g
LIVER (9 h): 8.9 g
A/G (9 h): 1.7
ALP (9 h): 1031 IU/L
ALT (9 h): 32.8 IU/L
AST (9 h): 62.4 IU/L
BUN (9 h): 8.2 mg/dL
CRE (9 h): 0.4 mg/dL
Ca (9 h): 10.3 mg/dL
Cl (9 h): 103.6 meq/L
DBIL (9 h): 0.068 mg/dL
GLC (9 h): 193.6 mg/dL
IP (9 h): 9.7 mg/dL
K (9 h): 3.7 meq/L
LDH (9 h): 157 IU/L
Na (9 h): 142 meq/L
PL (9 h): 150.4 mg/dL
RALB (9 h): 3.5 g/dL
TBIL (9 h): 0.1 mg/dL
TC (9 h): 77.2 mg/dL
TG (9 h): 58.6 mg/dL
TP (9 h): 5.5 g/dL
gamma-GTP (9 h): 1.4 IU/L
TERMINAL_BW (24 h): 223 g
APTT (24 h): 19.3 s
Bas (24 h): 0%
Eos (24 h): 1%
Fbg (24 h): 212.4 mg/dL
Hb (24 h): 13.1 g/dL
Ht (24 h): 39%
Lym (24 h): 80.6%
MCH (24 h): 21.3 pg
MCHC (24 h): 33.6%
MCV (24 h): 63.4 fL
Mono (24 h): 2.4%
Neu (24 h): 14.8%
PT (24 h): 13 s
Plat (24 h): 122.4 x10_4/uL
RBC (24 h): 616 x10_4/ul
Ret (24 h): 6.8%
WBC (24 h): 101.7 x10_2/uL
KIDNEY_L (24 h): 1 g
KIDNEY_R (24 h): 1 g
KIDNEY_TOTAL (24 h): 2 g
LIVER (24 h): 10.6 g
A/G (24 h): 1.6
ALP (24 h): 1054.4 IU/L
ALT (24 h): 34.2 IU/L
AST (24 h): 68.8 IU/L
BUN (24 h): 17.8 mg/dL
CRE (24 h): 0.4 mg/dL
Ca (24 h): 10.6 mg/dL
Cl (24 h): 102 meq/L
DBIL (24 h): 0.1 mg/dL
GLC (24 h): 206.8 mg/dL
IP (24 h): 7.7 mg/dL
K (24 h): 3.8 meq/L
LDH (24 h): 200 IU/L
Na (24 h): 140 meq/L
PL (24 h): 148 mg/dL
RALB (24 h): 3.3 g/dL
TBIL (24 h): 0.2 mg/dL
TC (24 h): 76.2 mg/dL
TG (24 h): 96.2 mg/dL
TP (24 h): 5.4 g/dL
gamma-GTP (24 h): 1.4 IU/L
